Experimental data: patent US8853242B2, “Nitrogenous-ring acylguanidine derivative” (Astellas Pharma Inc., priority 2009, dated 2014)

What was measured:
Male ddY mouse = assay: Spontaneous alternation behavior (Y-maze) induced by Scoporamine in mice; format: in vivo; details: Scoporamine 0.5 mg/kg i.p.
Procedure: The improvement effect of compound of formula (I) on cognitive impairment of dementia and schizophrenia was evaluated by a known test method as a model with short-term learning disorder.
After 10 to 30 minutes from oral administration of the test compound, 0.5 mg/kg of Scoporamine or 0.15 mg/kg of MK-801 (in the case of a normal group, physiological saline was administered) was intraperitoneally administered. After 20 minutes, the test was conducted. In addition, solvent (vehicle) was orally administered to the normal group (to which physiological saline was administered) and to the control group (to which 0.5 mg/kg of Scoporamine or 0.15 mg/kg of MK-801 was administered), when the test compound was administered.
A mouse was placed at the end of one arm of a Y-maze having arms with the same length in three directions, and then allowed to explore freely and the number of arm entries was counted for 8 minutes. Further, spontaneous alternation behavior was defined as entries into all three different arms on consecutive occasions, and the ratio of the number of instances of this behavior to the total number of the entries was calculated as an alternation rate by the following formula: Alternation rate(%)=Number of spontaneous alternation behaviors/(Total number of entries−2)×100.
If a significant difference between the normal group and the control group (Student's T test) was approved in the alternation rate (%), it was considered to have learning disorder by the administration of Scoporamine or MK-801. By carrying out a Dunnett's test on the group administered with the test compound with respect to the control group, the presence or absence of effect of the test compound on learning disorder was evaluated. For each assay, it was considered that there was a tendency when p<0.10 and there was a significant difference when p<0.05.

Male ICR mouse [1] = assay: Hyperactivity (quantity of motion) induced by MK-801 in mice; format: in vivo; details: MK-801 0.3 mg/kg, P<0.05
Procedure: (§1) The improvement effect of compound of formula (I) on schizophrenia was evaluated by measuring the quantity of motion inhibited by administration of the compound in a model in which the symptoms were induced by methamphetamine (hereinafter abbreviated as MAP) and MK-801.
(§2) The animal was taken out of a breeding cage, orally administered with a test compound, and then placed into a cage for breeding. After 30 minutes, the animal was put into a cage for measurement, and the quantity of motion with the test compound alone was measured. Further, after 30 to 90 minutes, the animal was taken out, and subcutaneously or intraperitoneally administered with a drug for increasing the quantity of motion (MAP; 1.5 mg/kg or MK-801; 0.3 mg/kg, dissolved in physiological saline, respectively). Then, the quantity of motion for a certain period of time (60 minutes) was measured using a device for measuring the quantity of motion (CompACT AMS manufactured by Muromachi Kikai Co., Ltd.) by means of an infrared sensor.
(§3) For a normal mouse (a mouse administered with physiological saline) and a mouse administered with a drug for increasing the quantity of motion, a Student's T test was performed for evaluation for each interval. For a group administered with the test compound, an assay was performed using a solvent (vehicle) group and a Dunnett's T test. For the evaluation, if there was a significant difference (P<0.05), it was considered that there is an effect.

Male ICR mouse [2] = assay: Hyperactivity (quantity of motion) induced by methamphetamine (MAP) in mice; format: in vivo; details: oral dose 0.1 mg/kg; MAP 1.5 mg/kg; P<0.05
Procedure: as §1, §2
as §3, with “For the evaluation, if there was a significant difference (P<0.05), it was considered that there is an effect.” left out

human 5-HT5A receptor = human 5-HT5A receptor (Homo sapiens (Human), UniProt P47898); assay: Test on a human 5-HT5A receptor binding inhibition ([3H]5-CT); details: membrane from HEK293 cells expressing human 5-HT5A receptor, Ki calculated from IC50
Sequence of human 5-HT5A receptor (P47898 whole entry): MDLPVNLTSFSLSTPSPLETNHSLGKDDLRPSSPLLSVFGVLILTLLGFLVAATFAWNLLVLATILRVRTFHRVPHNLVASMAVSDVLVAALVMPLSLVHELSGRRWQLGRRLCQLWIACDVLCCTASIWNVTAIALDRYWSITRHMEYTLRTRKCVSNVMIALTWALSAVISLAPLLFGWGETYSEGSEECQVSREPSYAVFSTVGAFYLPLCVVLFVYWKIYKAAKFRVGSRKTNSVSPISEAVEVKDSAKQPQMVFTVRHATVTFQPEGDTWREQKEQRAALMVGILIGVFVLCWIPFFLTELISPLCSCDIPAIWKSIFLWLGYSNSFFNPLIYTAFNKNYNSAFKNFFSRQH

| Ki (human 5-HT5A receptor; [3H]5-CT binding inhibition) [nM] | Ki (human 5-HT5A receptor; [3H]5-CT binding) [nM] | SMILES | spontaneous alternation behavior induced by Scoporamine (Male ddY mouse; oral dose 0.01 mg/kg) | hyperactivity induced by MK-801 (Male ICR mouse [1]; oral dose 0.03 mg/kg) | hyperactivity induced by MAP (Male ICR mouse [2]) | spontaneous alternation behavior induced by Scoporamine (Male ddY mouse; oral dose 0.001 mg/kg) | hyperactivity induced by MK-801 (Male ICR mouse [1]; oral dose 0.01 mg/kg) | spontaneous alternation behavior induced by Scoporamine (Male ddY mouse; oral dose 0.003 mg/kg) |
| --- | --- | --- | --- | --- | --- | --- | --- | --- |
| 1.4 |  | NC(N)=NC(=O)c1ccc2c(F)cnc(-c3c(F)cccc3F)c2c1 [Example 148] | significantly inhibited | significantly inhibited | significantly inhibited |  |  |  |
| 3.3 |  | NC(N)=NC(=O)c1ccc2c(F)cnc(-c3ccccc3F)c2c1 [Example 160] |  |  |  | significantly inhibited | significantly inhibited |  |
| 1.8 | 1 to 10 | Cc1cnc(-c2ccccc2F)c2cc(C(=O)N=C(N)N)ccc12 [Example 192] |  |  |  |  | significantly inhibited | significantly inhibited |
